From US11207285B2, “Diabetes treatment regimens using alpha, alpha-substituted long-chain amphipathic carboxylates” (SYNDROMEX LTD., priority 2016, dated 2021)
Where “and” joins values, the source holds several entries; their conditions need not be identical. Equal values may be shown once.

How the values were obtained:
[1] = target: Signal transducer and activator of transcription 3 (STAT3) (Homo sapiens, UniProt P40763); assay: transcriptional activity of STAT3
animal models = assay: plasma lipid lowering in animal models; assay type: in vivo
[2] = tested on: Type 2 Diabetes Mellitus (T2D) patients; assay: 4-week M16αα study in T2D patients, efficacy; assay type: in vivo, human; settings: for Comp ISI / HP ISI / HbA1c Day 90 - extrapolated / IR / HbA1c Day 28: after
Description: Exploratory, double-blind, randomized, placebo-controlled study, to evaluate the safety, efficacy and pharmacokinetics of 4-week M16αα treatment of Type 2 Diabetes Mellitus (T2D) patients. T2D patients were either non-treated or receiving ongoing treatment with metformin alone or in combination with other standard-of-care (SoC) oral or parenteral antidiabetic drug/s. T2D patients, non-treated or treated with SoC antidiabetic drugs as outlined below, were screened for eligibility (inclusion/exclusion according to criteria detailed below), followed by being randomly allocated to receive once daily either add-on M16αα (40 mg M16αα plus 130 mg microcrystalline cellulose in gelatin capsules) or add-on placebo (130 mg microcrystalline cellulose in gelatin capsules), in addition to the SoC anti-diabetic treatment they have been receiving regularly. One patient was not under SoC anti-diabetic drug treatment. Sixteen (16) patients were randomized to M16αα treatment and 3 patients were randomized to placebo treatment. Patients randomized to M16αα treatment were dosed for 28 days with add-on M16αα in double-blinded manner, followed by 4-week recovery period using add-on placebo in a single-blinded manner. Patients randomized to placebo treatment were dosed for 28 days with add-on placebo in double-blinded manner. Cohort 1 included 6 uncontrolled T2D patients (HbA1c>7.3%), 5 treated for their hyperglycemia by metformin only (patients 101, 102, 103, 105, 106), and one naïve patient (not under SoC anti-diabetic treatment, patient 108). Cohort 2 included 6 T2D patients (HbA1c>7.3%) (patients 202, 203, 205, 206, 207, 210) treated for their hyperglycemia by a variety of SoC anti-diabetic drug/s except insulin/insulin analogs (metformin plus sulphonylurea and/or DPP4 inhibitor and/or GLP1 analog and/or SGLT2 inhibitor). Cohort 3 included 4 T2D patients (HbA1c>7.3%) treated for their hyperglycemia by basal insulin analogs and a variety of anti-diabetic drugs (metformin and/or sulphonylurea and/or DPP4 inhibitor and/or GLP1 analog and/or SGLT2 inhibitor). During the study period the subjects underwent physical examination, clinical pathology, hematology, urinalysis, lipid profile, HbA1C, continuous glucose monitoring (CGM) and an oral glucose tolerance test (OGTT) (75 g glucose; glucose, insulin, c-peptide; 0, 30, 60, 120, 180 min) prior to dosing, upon end of M16αα treatment, and following the recovery period (EOS visit). HbA1c, Continuous glucose monitoring (CGMS), OGTT (Glucose/Insulin/C-peptide), HOMA, Hepatic Insulin Sensitization Index (HP ISI), Composite insulin sensitization index (Comp ISI), Insulin resistance (IR), plasma lipid profile (Triglycerides, Cholesterol, LDL-C, VLDL-C, HDL-C, non-HDL-C, apoB), hsCRP, Fibrinogen. All measured variables and derived parameters were listed individually and tabulated by descriptive statistics. For descriptive statistics summary tables were provided giving sample size, means, standard deviations and 95% CI (Confidence Interval) or frequency with percentage according to the scale of the variable. Regarding small sample size, non-parametric methods were conducted: Differences between end of drug dosing and baseline for each efficacy parameter were analyzed using the Wilkcoxon matched-pairs signed-ranks test. Differences between M16αα-treated and placebo groups were analyzed for each efficacy parameter using the Mann-Whitney two-sample U-test. Drug: 40 mg 2,2,15,15-tetramethylhexadecane-dioic acid (M16αα) per day, in a gelatin capsule. This daily dose of M16αα is based on safety and PK considerations in a previous, single-dose study in healthy volunteers and pre-clinical data. Administration: oral, before breakfast, with 240 ml water, for both drug and placebo. M16αα or placebo were administered orally for 28 consecutive days, followed by additional 28 days of placebo. End of Study (EOS) visit took place about 4 weeks after last dose of M16αα administered. […]

[3] = Cohort 1 single patients 101, 102, 106 on metformin only, add-on 40 mg/day
[4] = Cohort 2 single patients 202, 205, 206 on SoC drugs except insulin, add-on 40 mg/day
[5] = Cohort 3 single patients 301-304 on basal insulin analogs and other drugs, add-on 40 mg/day
[6] = patient 108, no ongoing anti-diabetic treatment, 40 mg/day
[7] = baseline 1.0, all patients on add-on M16αα
[8] = estimated by linear extrapolation from 28 d
[9] = weighted average, all patients on add-on M16αα

Sequence of Signal transducer and activator of transcription 3 (STAT3) (P40763 whole entry, species assumed): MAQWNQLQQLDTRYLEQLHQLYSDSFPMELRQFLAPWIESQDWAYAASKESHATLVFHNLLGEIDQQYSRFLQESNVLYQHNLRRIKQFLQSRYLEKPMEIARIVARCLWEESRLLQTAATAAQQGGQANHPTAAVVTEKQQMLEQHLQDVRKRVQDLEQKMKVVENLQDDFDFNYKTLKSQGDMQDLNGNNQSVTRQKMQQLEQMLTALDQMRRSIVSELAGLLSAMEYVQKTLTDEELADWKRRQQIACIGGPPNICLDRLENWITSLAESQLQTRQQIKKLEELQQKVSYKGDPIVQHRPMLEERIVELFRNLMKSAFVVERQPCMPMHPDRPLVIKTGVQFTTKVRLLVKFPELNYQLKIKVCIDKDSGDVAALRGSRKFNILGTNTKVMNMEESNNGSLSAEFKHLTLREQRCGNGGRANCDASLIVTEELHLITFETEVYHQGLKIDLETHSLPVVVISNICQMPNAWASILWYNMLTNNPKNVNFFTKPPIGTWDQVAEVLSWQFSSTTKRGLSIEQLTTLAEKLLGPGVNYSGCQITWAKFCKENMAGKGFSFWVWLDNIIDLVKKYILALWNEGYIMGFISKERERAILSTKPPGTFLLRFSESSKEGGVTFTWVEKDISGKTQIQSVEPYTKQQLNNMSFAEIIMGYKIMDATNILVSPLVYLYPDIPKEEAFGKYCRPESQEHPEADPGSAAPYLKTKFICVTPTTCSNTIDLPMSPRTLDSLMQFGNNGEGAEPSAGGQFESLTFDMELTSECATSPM

Structure (SMILES): CC(C)(CCCCCCCCCCCCC(C)(C)C(=O)O)C(=O)O [M16αα, 2,2,15,15-tetramethyl-hexadecane-1,16-dioic acid]
- transcriptional activity of STAT3 [1]: suppressing
- plasma LDL-cholesterol (animal models): statin-like efficacy in lowering plasma LDL-cholesterol
- plasma triglycerides (animal models): robust decrease of plasma triglycerides
- Continuous glucose monitoring [CGM(<180 mg %)], Change in Baseline: Increase by ([2]; % of time with glucose lower than 180 mg %, baseline 71 ± 25%): Increase by 8.4%
- insulin sensitizing activity compared with add-on pioglitazone ([2]; M16αα added-on to metformin): surpasses that reported for add-on Pio
- diabetic profile ([2]; T2D patient not under anti-diabetic SoC, low dose): significantly improved diabetic profile
- prospective glucose-lowering activity compared with SoC oral anti-diabetic drugs ([2]; add-on M16αα): surpasses those reported for current SoC oral anti-diabetic drugs
- Comp ISI [2, 3]: 19.17 and 5.0 and 10.10
- HP ISI [2, 3]: 9.5 and 2.3 and 2.1
- HbA1c Day 90 - extrapolated [2, 3]: 5.3 and 5.9 and 5.4
- IR [2, 3]: 0.4 and 0.6 and 0.5
- HbA1c Day 28 ([2]; Cohort 1 single patients 101, 102, 106 on metformin only, add-on 40 mg/day oral 28 d): 6.7 and 6.9 and 6.8
- Comp ISI [2, 4]: 2.2 and 4.7 and 5.5
- HP ISI [2, 4]: 0.4 and 0.6 and 1.1
- HbA1c Day 90 - extrapolated [2, 4]: 6.0 and 8.1 and 4.1
- IR [2, 4]: 2.2 and 1.8 and 0.9
- HbA1c Day 28 ([2]; Cohort 2 single patients 202, 205, 206 on SoC drugs except insulin, add-on 40 mg/day oral 28 d): 6.8 and 8.1 and 7.1
- Comp ISI [2, 5]: 4.6 and 6.9 and 6.3
- HP ISI [2, 5]: 0.79 and 0.88 and 1.33 and 1.41
- IR [2, 5]: 1.4 and 1.1 and 0.8 and 0.7
- HbA1c Day 28 ([2]; Cohort 3 single patients 301-304 on basal insulin analogs and other drugs, add-on 40 mg/day oral 28 d): 8.17 and 7.33 and 7.52 and 8.73
- Comp ISI [2, 6]: 5.8
- HP ISI [2, 6]: 1.6
- HbA1c Day 90 - extrapolated [2, 6]: 7.6
- IR [2, 6]: 0.6
- HbA1c Day 28 ([2]; patient 108, no ongoing anti-diabetic treatment, 40 mg/day oral 28 d): 7.6
- Composite insulin sensitization index (CompISI), Change in Baseline: Increase by [2, 7]: Increase by 2.04-fold
- HOMA insulin resistance (HOMAIR), Change in Baseline: Increase by [2, 7]: Increase by 0.59-fold
- Hepatic insulin sensitization index (HepISI), Change in Baseline: Increase by [2, 7]: Increase by 2.50-fold
- HOMA % B, Change in Baseline: Decrease by ([2]; baseline 1.0, beta-cell rest): Decrease by 0.81-fold
- Bodyweight, Change in Baseline: Decrease by ([2]; baseline 88 ± 9 kg): Decrease by 0.6 kg
- Σglucose (OGTT 0, 30, 60, 120, 180 min), Change in Baseline: Decrease by ([2]; baseline 100, all patients on add-on M16αα): Decrease by 7.8%
- Σc-peptide (OGTT 0, 30, 60, 120, 180 min), Change in Baseline: Decrease by ([2]; baseline 100, beta-cell rest): Decrease by 17%
- Hypertension, Change in Baseline ([2]; baseline 136 ± 13/75 ± 7): Decrease in 5 patients
- Fasting blood glucose (FBG), Change in Baseline: Decrease by ([2]; baseline 159 ± 56 mg/dL, all patients on add-on M16αα): Decrease by 11.7%
- Plasma triglycerides, Change in Baseline: Decrease by ([2]; baseline 169 ± 95 mg/dL): Decrease by 18%
- HbA1C (%) (Estimated 90 d), Change in Baseline: Decrease by [2, 8]: Decrease by 0.96-1.44%
- HbA1C (Estimated 90 d), Change in Baseline: Decrease [2, 8]: (10.6-15.8 mmol/mol)
- HbA1C (Estimated 90 d), Change in Baseline: Decrease as eAG [2, 8]: (eAG 28-42 mg/dL)
- effectiveness as add-on drug ([2]; patients under anti-diabetic SoC): effective as an add-on drug
- HbA1C (28 d), Change in Baseline: Decrease [2, 9]: (5.28 mmol/mol)
- HbA1C (28 d), Change in Baseline: Decrease as eAG [2, 9]: (eAG 14 mg/dL)
- HbA1C (%) (28 d), Change in Baseline: Decrease by ([2]; weighted average, all patients on add-on M16αα 40 mg/day, baseline 7.96 ± 0.81): Decrease by 0.48%
